From patent publication US20040241839A1, “Culturing neural stem cells” (priority 2003, published 2004)
Where two headings read alike, the source gives them in different places.

Columns and labels:
[1] = system: dissociates of postnatal C57/BL mouse forebrain (neurospheres); assay: Formation and growth of neurospheres in serum-free semi-solid methylcellulose medium with growth factors; assay type: cell-based
Procedure: Preparation of single-cell suspensions and cloning in MC. Dissociates of postnatal (5-7 days old) C57/BL mouse forebrain (subependymal zone and hippocampus) were used to generate suspended clones under anchorage and serum withdrawal in semi-solid methyl cellulose (MC). The procedures were performed as previously described Kukekov et al., Glia 21:399-407, 1997; and Kukekov et al., Exp Neurol, 156:333-344, 1999, with some additional modifications. Brain samples (approximately 10 mm^3) were minced, transferred to a beaker containing a solution of 0.25% trypsin in 0.1 mM EDTA (mixture 4:1), and slowly stirred on a magnetic plate at roomm temperature for 15 minutes. After trituration through a plastic 5 ml pipette and a fire-polished Pasteur pipette, the dissociate was washed (5-8 times in 5 ml of medium) to eliminate cellular debris.
The resultant suspension was filtered through sterile gauze, and verified to contain only single cells which were counted with a hemocytometer. Finally, cells were resuspended in 0.8% MC-based medium (NeuroCult medium, Cat. #03237, StemCell Technologies, Vancouver, BC) and plated at a clonal density (i.e., about […]) in 6-well plates coated with a non-adhesive substrate, i.e., poly 2-hydroxyethyl methacrylate (poly-HEME, Sigma) according to the manufacturer's instructions. Cells were maintained in a 37° C. incubator with 95% air, 5% CO2, and 100% humidity. Clones became visible under an inverted phase microscope approximately one week after plating.
Morphometric analysis of neurospheres. The number and diameters of neurospheres was assessed using an inverted phase microscope equipped with a size covering net. The number of neurospheres in each experimental group was normalized to the protein content. Aliquots of suspensions were removed for protein measurement using Pierce BCA protein Kit (Pierce, Rockford, Ill.) according to the manufacturer's instructions. Measurements were taken following one, two and three weeks of growth in vitro.
Using the above-described methods, dissociates of postnatal(5-7 days old) C57/BL mouse forebrain, (subependymal zone and hippocampus) were used to generate suspended clones under anchorage and serum withdrawal in semi-solid MC (MC-clones) Equal amounts of dissociates were placed in serum-free DMEM/F12, 1:1 medium supplemented with 0.8% MC and insulin (NeuroCult medium, Cat. #03237, StemCell Technologies, Vancouver, BC) in the presence of (i) 10 ng/ml EGF plus 10 ng/ml FGF2, (ii) 10 μM LPA alone and (iii) EGF+FGF2 in combination with LPA. Growth factors, i.e., EGF, FGF2 were obtained from Peprotech, Inc., and LPA was obtained from LPA-Avanti Polar Lipids, Inc. Freshly prepared aliquots of EGF and FGF2 were added every 3 days during a 21 day interval of clone (neurosphere) generation. The numbers and diameters of neurospheres were measured at the end of the third week in vitro.
Using methods described above, cells were recovered after complete dissociation of mouse forebrain to single cells and plated at a density of ˜10^4 cells/well in serum free semi-solid methylcellulose medium containing growth factors, ie., 10 μM oleoyl (C18:1) LPA, or 10 ng/ml each of EGF and FGF2. […] Neurosphere growth persisted during the second week in semi-solid medium continuously supplemented with LPA or EGF+FGF2 (FIG. 1B).

[2] = system: neurospheres (AC133 and Sca-1 antigens); assay: Immunocytochemical staining of neurospheres grown in the presence of LPA; assay type: cell-based, mouse
Procedure: Neurospheres were grown in suspension in the presence of LPA for 18 days, then transferred onto cover slips coated with laminin and poly-L-ornithine. The neurospheres attached within 6 hours and were allowed to spread and differentiate for an additional 48 hours. Cover slips were then fixed and processed for immunostaining. Antibodies used in these studies included antibodies against AC133 antigen (Miltenyi Biotech) and Sca-1 antigen (BD Pharmingen), against LPA receptors LPA1, LPA2 and LPA3 Exalpha Biologicals Inc., Antibody Solutions), βIII-tubulin (ovance, Inc.), and nestin (Chemicon, Inc.), CNPase (Sigma). To study the effect of LPA on differentiation of neurospheres, in some cases double immunostaining of LPA receptors and neuronal markers was performed. Results were analyzed using confocal microscopy. Visualization of the proteins was performed by two-color fluorescent dye labeling (i.e., red-Texas Red, green-Alexa Green) and subsequent analysis in laser confocal microscope appropriately equipped with filters of different wavelengths. The images were taken at the same gain setting for each filter within one experimental set. As an example, referring to FIG. 2A, B, the presence of AC133 antigen was detected by red fluorescence and that of Sca-1 by green fluorescence using separate wavelength visualization. AC133/Sca-1 co-localization was detected as yellow fluorescence using dual wavelength visualization (shown in right column of FIG. 2).
Neurospheres were grown using methods described above in the presence of LPA in semi-solid medium for two weeks. Aliquots of neurospheres were then removed and placed onto glass cover slips coated with laminin/poly-L-ornithine. Fresh medium without methyl cellulose and FBS (10% final) were added to initiate neurosphere adherence to the cover slip surface. The neurospheres became completely attached within 4 to 6 hours after transfer. […]
Cover slips were then fixed, stained with antibodies against AC133, Sca-1, LPA1, LPA2 and LPA3 receptors and analyzed using immunofluorescent techniques, as described above. […]

[3] = system: LPA-induced formation of neurospheres; conditions: for size of neurospheres generated by LPA: 2 weeks (FIG. 1C); for numbers of neurospheres formed: 2 weeks (FIG. 1D)
Procedure: In (C, D), neurospheres were maintained in culture for 2 weeks in the presence of LPA alone or LPA plus 1 μM or 50 μM DGPP. The number/field and the size of at least 200 neurospheres formed at 2 weeks were counted. The results are presented as mean +SEM of three independent experiments from four different neurosphere preparations. Unpaired Student's t-test was used to assess significance of the mean difference, and F test was used to compare variances.
To examine the potential involvement of LPA receptors in the LPA-induced formation of neurospheres, the effect of DGPP at low concentration (i.e., 1 μM) and high concentration (i.e., 50 μM) was compared.

LPA3 receptor = target: T1, LPA3 receptor (Homo sapiens, UniProt Q9UBY5); conditions: cited from earlier work
T1 sequence (Q9UBY5 1-353): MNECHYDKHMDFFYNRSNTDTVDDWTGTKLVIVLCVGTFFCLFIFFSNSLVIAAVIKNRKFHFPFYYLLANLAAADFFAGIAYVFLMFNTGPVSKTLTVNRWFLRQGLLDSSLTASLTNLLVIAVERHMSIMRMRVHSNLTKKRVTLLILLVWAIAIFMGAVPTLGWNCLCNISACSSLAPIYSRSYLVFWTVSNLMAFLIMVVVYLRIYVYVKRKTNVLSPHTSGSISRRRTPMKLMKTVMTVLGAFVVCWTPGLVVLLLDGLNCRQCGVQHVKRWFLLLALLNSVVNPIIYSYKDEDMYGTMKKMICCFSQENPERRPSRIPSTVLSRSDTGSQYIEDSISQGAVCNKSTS

LPA1 receptor = LPA1 receptor (Homo sapiens, UniProt Q92633); conditions: high concentration; cited from earlier work
Chain of LPA1 receptor (Q92633 whole entry): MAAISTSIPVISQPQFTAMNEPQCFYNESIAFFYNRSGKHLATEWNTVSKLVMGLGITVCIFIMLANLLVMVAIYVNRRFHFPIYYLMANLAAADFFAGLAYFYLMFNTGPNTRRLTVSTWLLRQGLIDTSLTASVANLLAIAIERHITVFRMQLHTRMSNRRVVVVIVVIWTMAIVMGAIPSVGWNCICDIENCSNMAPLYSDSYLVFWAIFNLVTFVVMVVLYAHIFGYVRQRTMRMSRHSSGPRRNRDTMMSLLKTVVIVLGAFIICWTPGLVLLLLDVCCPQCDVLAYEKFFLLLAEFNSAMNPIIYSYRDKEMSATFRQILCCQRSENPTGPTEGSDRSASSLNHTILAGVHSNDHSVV

[4] = 10 μM LPA or 10 ng/ml each EGF and FGF2
[5] = grown two weeks in LPA, attached to cover slips

## 1 -acyl-2-hydroxy-sn-glycero-3-phosphate [LPA]
[1]; [4]
  diameter of neurospheres, Maximum: 204
  diameter of neurospheres, Median: 72.25
  diameter of neurospheres, Minimum: 14.1
  diameter of neurospheres, Mode: 55.4
  number of neurospheres per field (Count): 220
[1]; 10 μM LPA or 10 ng/ml each EGF and FGF2, serum-free methylcellulose medium
  diameter of neurospheres, Mean: 79.54 μm
[1]; continuous supplementation with growth factor
  time for which neurosphere development was sustained: up to 3 months
[1]; first week in culture, 10 μM oleoyl LPA or 10 ng/ml each EGF and FGF2
  formation of neurospheres: formed distinguishable neurospheres
[2]; grown attached in the presence of the growth factor
  Sca-1 antigen and AC133 in the residual core of neurospheres grown attached: still detected
[2]; [5]
  co-localization of AC133 and Sca-1 throughout the neurospheres: ~100%
  expression of AC133 and Sca-1 antigens in neurospheres: expressed both AC133 and Sca-1 antigens

## CCCCCCCC(=O)OC[C@H](COP(=O)(O)OP(=O)(O)O)OC(=O)CCCCCCC [DGPP, diacyl-glycerol pyrophosphate]
[3]; DGPP 1 μM plus LPA
  size of neurospheres generated by LPA: significantly reduced
  numbers of neurospheres formed: not
[3]; DGPP 50 μM plus LPA
  size of neurospheres generated by LPA: significantly reduced
[3]; DGPP 50 μM plus LPA, p=0.0056
  numbers of neurospheres formed: decreased considerably
[3]; concentration not given
  LPA-induced formation and growth of neurospheres: specifically inhibited
LPA3 receptor; high concentration
  LPA activation of LPA3 receptor: blocks
LPA3 receptor; low concentration
  effect on LPA3 receptor: preferentially inhibit
LPA1 receptor
  LPA activation of LPA1 receptor: blocks
